Results as given in patent US20260285872A1, “COMPOUNDS AND METHODS FOR DEGRADING GSPT1” (priority 2023, published 2026).

system: NCI-H1155 cells; assay: NSCLC cell viability, CellTiter-Glo, NCI-H1155 cells; assay type: cell-based; details: Homo sapiens; NCI-H1155 cells, CellTiter-Glo, 72 hours of treatment; read-out: Cell viability classification (NCI-H1155)

SMILES	IC50 [nM]
O=C1CCC(N2Cc3cc(C(=O)N4CC5(CCOC5)C4)ccc3C2=O)C(=O)N1 (stereo not shown) [Example 187, 3-(1-oxo-5-(6-oxa-2-azaspiro[3.4]octane-2-carbonyl)isoindolin-2-yl)piperidine-2,6-dione]	> 1000
O=C1CCC(N2Cc3cc(C(=O)N4CCC5(CCC(F)(F)CC5)C4)ccc3C2=O)C(=O)N1 (stereo not shown) [Example 190, 3-(5-(8,8-difluoro-2-azaspiro[4.5]decane-2-carbonyl)-1-oxoisoindolin-2-yl)piperidine-2,6-dione]	> 1000
O=C1CCC(N2Cc3cc(C(=O)N4CC(F)(c5cccc(F)c5)C4)ccc3C2=O)C(=O)N1 (stereo not shown) [Example 191, 3-(5-(3-fluoro-3-(3-fluorophenyl)azetidine-1-carbonyl)-1-oxoisoindolin-2-yl)piperidine-2,6-dione]	100 to 1000
O=C1CCC(N2Cc3cc(C(=O)N4CC(c5ccccc5F)C4)ccc3C2=O)C(=O)N1 (stereo not shown) [Example 194, 3-(5-(3-(2-fluorophenyl)azetidine-1-carbonyl)-1-oxoisoindolin-2-yl)piperidine-2,6-dione]	100 to 1000
O=C1CCC(N2Cc3cc(C(=O)NC4CC5(C=C(c6ccc(F)c(F)c6)C5)C4)ccc3C2=O)C(=O)N1 (stereo not shown) [Example 215, N-(6-(3,4-difluorophenyl)spiro[3.3]hept-5-en-2-yl)-2-(2,6-dioxopiperidin-3-yl)-1-oxoisoindoline-5-carboxamide]	100 to 1000
N#Cc1ccc(C2=CC3(C2)CC(NC(=O)c2ccc4c(c2)CN(C2CCC(=O)NC2=O)C4=O)C3)cc1 (stereo not shown) [Example 216, N-(6-(4-cyanophenyl)spiro[3.3]hept-5-en-2-yl)-2-(2,6-dioxopiperidin-3-yl)-1-oxoisoindoline-5-carboxamide]	100 to 1000
O=C1CCC(c2nc3cc(COC(=O)Nc4ccc(OC(F)(F)F)cc4F)ccc3o2)C(=O)N1 (stereo not shown) [Example 223, (2-(2,6-dioxopiperidin-3-yl)benzo[d]oxazol-5-yl)methyl (2-fluoro-4-(trifluoromethoxy)phenyl)carbamate]	100 to 1000
O=C1CCC(c2nc3cc(COC(=O)Nc4cc(Cl)ccc4F)ccc3o2)C(=O)N1 (stereo not shown) [Example 224, (2-(2,6-dioxopiperidin-3-yl)benzo[d]oxazol-5-yl)methyl (5-chloro-2-fluorophenyl)carbamate]	100 to 1000
O=C1CCC(N2Cc3cc(C(=O)NC4CC5(C4)CC(O)(c4ccc(F)cc4)C5)ccc3C2=O)C(=O)N1 (stereo not shown) [Example 225, 2-(2,6-dioxopiperidin-3-yl)-N-(6-(4-fluorophenyl)-6-hydroxyspiro[3.3]heptan-2-yl)-1-oxoisoindoline-5-carboxamide]	> 1000
COc1ccc(C2CC3(C2)CN(C(=O)c2ccc4c(c2)CN(C2CCC(=O)NC2=O)C4=O)C3)cc1 (stereo not shown) [Example 233, 3-(5-(6-(4-methoxyphenyl)-2-azaspiro[3.3]heptane-2-carbonyl)-1-oxoisoindolin-2-yl)piperidine-2,6-dione]	> 1000
COc1ccc(C2=CC3(C2)CN(C(=O)c2ccc4c(c2)CN(C2CCC(=O)NC2=O)C4=O)C3)cc1 (stereo not shown) [Example 237, 3-(5-(6-(4-methoxyphenyl)-2-azaspiro[3.3]hept-5-ene-2-carbonyl)-1-oxoisoindolin-2-yl)piperidine-2,6-dione]	> 1000
N#Cc1ccccc1C1=CC2(C1)CN(C(=O)c1ccc3c(c1)CN(C1CCC(=O)NC1=O)C3=O)C2 (stereo not shown) [Example 238, 2-(2-(2-(2,6-dioxopiperidin-3-yl)-1-oxoisoindoline-5-carbonyl)-2-azaspiro[3.3]hept-5-en-6-yl)benzonitrile]	100 to 1000
O=C1CCC(N2Cc3cc(C(=O)N4CC5(C4)CC(O)(c4ccc(F)cc4)C5)ccc3C2=O)C(=O)N1 (stereo not shown) [Example 243, 3-(5-(6-(4-fluorophenyl)-6-hydroxy-2-azaspiro[3.3]heptane-2-carbonyl)-1-oxoisoindolin-2-yl)piperidine-2,6-dione]	> 1000
COC1(c2ccc(F)cc2)CC2(CN(C(=O)c3ccc4c(c3)CN(C3CCC(=O)NC3=O)C4=O)C2)C1 (stereo not shown) [Example 244, 3-(5-(6-(4-fluorophenyl)-6-methoxy-2-azaspiro[3.3]heptane-2-carbonyl)-1-oxoisoindolin-2-yl)piperidine-2,6-dione]	100 to 1000
O=C1CCC(N2Cc3cc(C(=O)N4CCC5(CC(c6ccc(F)cc6)C5)C4)ccc3C2=O)C(=O)N1 (stereo not shown) [Example 248, 3-(5-(2-(4-fluorophenyl)-6-azaspiro[3.4]octane-6-carbonyl)-1-oxoisoindolin-2-yl)piperidine-2,6-dione]	10 to 100
O=C1CCC(N2Cc3cc(C(=O)N4CCC5(C=C(c6cccc(F)c6)C5)C4)ccc3C2=O)C(=O)N1 (stereo not shown) [Example 249, 3-(5-(2-(3-fluorophenyl)-6-azaspiro[3.4]oct-1-ene-6-carbonyl)-1-oxoisoindolin-2-yl)piperidine-2,6-dione]	10 to 100

Second part, the compound after the results:

IC50 [nM]	SMILES
> 1000	O=C1CCC(N2Cc3cc(C(=O)N4CC5(COC5)C4)ccc3C2=O)C(=O)N1 (stereo not shown) [Example 188, 3-(1-oxo-5-(2-oxa-6-azaspiro[3.3]heptane-6-carbonyl)isoindolin-2-yl)piperidine-2,6-dione]
100 to 1000	O=C1CCC(N2Cc3cc(C(=O)N4CC(c5ccc(F)cc5)C4)ccc3C2=O)C(=O)N1 (stereo not shown) [Example 192, 3-(5-(3-(4-fluorophenyl)azetidine-1-carbonyl)-1-oxoisoindolin-2-yl)piperidine-2,6-dione]
100 to 1000	O=C1CCC(N2Cc3cc(C(=O)N4CC(c5cccc(F)c5)C4)ccc3C2=O)C(=O)N1 (stereo not shown) [Example 193, 3-(5-(3-(3-fluorophenyl)azetidine-1-carbonyl)-1-oxoisoindolin-2-yl)piperidine-2,6-dione]
100 to 1000	O=C1CCC(c2nc3ccc(COC(=O)Nc4cc(OC(F)(F)F)ccc4F)cc3o2)C(=O)N1 (stereo not shown) [Example 212, (2-(2,6-dioxopiperidin-3-yl)benzo[d]oxazol-6-yl)methyl (2-fluoro-5-(trifluoromethoxy)phenyl)carbamate]
100 to 1000	O=C1CCC(N2Cc3cc(C(=O)NC4CC5(C=C(c6ccc(OC(F)(F)F)cc6)C5)C4)ccc3C2=O)C(=O)N1 (stereo not shown) [Example 213, 2-(2,6-dioxopiperidin-3-yl)-1-oxo-N-(6-(4-(trifluoromethoxy)phenyl)spiro[3.3]hept-5-en-2-yl)isoindoline-5-carboxamide]
100 to 1000	O=C1CCC(N2Cc3cc(C(=O)NC4CC5(C=C(c6ccc(F)cc6F)C5)C4)ccc3C2=O)C(=O)N1 (stereo not shown) [Example 214, N-(6-(2,4-difluorophenyl)spiro[3.3]hept-5-en-2-yl)-2-(2,6-dioxopiperidin-3-yl)-1-oxoisoindoline-5-carboxamide]
> 1000	O=C1CCC(c2nc3ccc(C(=O)N4CC5(CCC(F)(F)CC5)C4)cc3o2)C(=O)N1 (stereo not shown) [Example 220, 3-(6-(7,7-difluoro-2-azaspiro[3.5]nonane-2-carbonyl)benzo[d]oxazol-2-yl)piperidine-2,6-dione]
100 to 1000	O=C1CCC(c2nc3ccc(C(=O)N4CC5(CC=C(F)CC5)C4)cc3o2)C(=O)N1 (stereo not shown) [Example 221, 3-(6-(7-fluoro-2-azaspiro[3.5]non-6-ene-2-carbonyl)benzo[d]oxazol-2-yl)piperidine-2,6-dione]
10 to 100	O=C1CCC(N2Cc3cc(C(=O)N4CC5(CCC(C(F)(F)F)C5)C4)ccc3C2=O)C(=O)N1 (stereo not shown) [Example 222, 3-(1-oxo-5-(6-(trifluoromethyl)-2-azaspiro[3.4]octane-2-carbonyl)isoindolin-2-yl)piperidine-2,6-dione]
10 to 100	O=C1CCC(N2Cc3cc(C(=O)N4CC5(CC(c6ccc(F)c(F)c6)C5)C4)ccc3C2=O)C(=O)N1 (stereo not shown) [Example 228, 3-(5-(6-(3,4-difluorophenyl)-2-azaspiro[3.3]heptane-2-carbonyl)-1-oxoisoindolin-2-yl)piperidine-2,6-dione]
10 to 100	O=C1CCC(N2Cc3cc(C(=O)N4CC5(CC(c6ccc(F)cc6F)C5)C4)ccc3C2=O)C(=O)N1 (stereo not shown) [Example 229, 3-(5-(6-(2,4-difluorophenyl)-2-azaspiro[3.3]heptane-2-carbonyl)-1-oxoisoindolin-2-yl)piperidine-2,6-dione]
100 to 1000	N#Cc1ccc(C2CC3(C2)CN(C(=O)c2ccc4c(c2)CN(C2CCC(=O)NC2=O)C4=O)C3)cc1 (stereo not shown) [Example 232, 4-(2-(2-(2,6-dioxopiperidin-3-yl)-1-oxoisoindoline-5-carbonyl)-2-azaspiro[3.3]heptan-6-yl)benzonitrile]
10 to 100	O=C1CCC(N2Cc3cc(C(=O)N4CC5(C=C(c6ccc(F)c(F)c6)C5)C4)ccc3C2=O)C(=O)N1 (stereo not shown) [Example 234, 3-(5-(6-(3,4-difluorophenyl)-2-azaspiro[3.3]hept-5-ene-2-carbonyl)-1-oxoisoindolin-2-yl)piperidine-2,6-dione]
100 to 1000	N#Cc1ccccc1C1CC2(C1)CN(C(=O)c1ccc3c(c1)CN(C1CCC(=O)NC1=O)C3=O)C2 (stereo not shown) [Example 239, 2-(2-(2-(2,6-dioxopiperidin-3-yl)-1-oxoisoindoline-5-carbonyl)-2-azaspiro[3.3]heptan-6-yl)benzonitrile]
10 to 100	N#Cc1ccc(C2=CC3(C2)CN(C(=O)c2ccc4c(c2)CN(C2CCC(=O)NC2=O)C4=O)C3)cc1 (stereo not shown) [Example 242, 4-(2-(2-(2,6-dioxopiperidin-3-yl)-1-oxoisoindoline-5-carbonyl)-2-azaspiro[3.3]hept-5-en-6-yl)benzonitrile]
10 to 100	O=C1CCC(N2Cc3cc(C(=O)N4CC5(CC(c6ccc(C(F)(F)F)c(F)c6)C5)C4)ccc3C2=O)C(=O)N1 (stereo not shown) [Example 245, 3-(5-(6-(3-fluoro-4-(trifluoromethyl)phenyl)-2-azaspiro[3.3]heptane-2-carbonyl)-1-oxoisoindolin-2-yl)piperidine-2,6-dione]
10 to 100	O=C1CCC(N2Cc3cc(C(=O)N4CC5(CC(c6ccc(C(F)(F)F)cc6F)C5)C4)ccc3C2=O)C(=O)N1 (stereo not shown) [Example 246, 3-(5-(6-(2-fluoro-4-(trifluoromethyl)phenyl)-2-azaspiro[3.3]heptane-2-carbonyl)-1-oxoisoindolin-2-yl)piperidine-2,6-dione]
10 to 100	O=C1CCC(N2Cc3cc(C(=O)N4CCC5(C=C(c6ccc(F)cc6)C5)C4)ccc3C2=O)C(=O)N1 (stereo not shown) [Example 247, 3-(5-(2-(4-fluorophenyl)-6-azaspiro[3.4]oct-1-ene-6-carbonyl)-1-oxoisoindolin-2-yl)piperidine-2,6-dione]
